Key:
[1] = target: IDH1-R132C recombinant protein (Homo sapiens (Human), UniProt O75874, R132C); test: IDH1-R132C enzymatic assay (inhibition of NADPH consumption, diaphorase/resazurin readout); assay type: biochemical; settings: read-out: Enzyme IDH1 R132C IC50 (Range)
Procedure: (§1) Assays were performed in a 384-well black plate. An aliquot of 250 nL of compound was incubated with 10 μL of 30 nM IDH1-R132H or 10 nM IDH1-R132C recombinant protein in assay buffer (50 mM Tris pH=7.5, 150 mM NaCl, 5 mM MgCl2, 0.1% (w/v) Bovine Serum Albumin, and 0.01% Triton X-100) in each well at 25° C. for 15 minutes. After the plate was centrifuged briefly, an aliquot of 10 μL of 2 mM α-ketoglutarate and 20 μM NADPH solution prepared in assay buffer was then added to each well and the reaction was maintained at 25° C. for 45 minutes. An aliquot of 10 μL of diaphorase solution (0.15 U/mL diaphorase and 30 µM Resazurin in assay buffer) was added to each well. The plate was maintained at 25° C. for 15 minutes and then read on a plate reader with excitation and emission wavelengths at 535 nm and 590 nm, respectively. The IC50 of a given compound was calculated by fitting the dose response curve of inhibition of NADPH consumption at a given concentration with the four parameter logistic equation.

[2] = target: IDH1-R132H recombinant protein (Homo sapiens (Human), UniProt O75874, R132H); test: IDH1-R132H enzymatic assay (inhibition of NADPH consumption, diaphorase/resazurin readout); assay type: biochemical; settings: read-out: Enzyme IDH1 R132H IC50 (Range)
IDH1-R132H recombinant protein, sequence (O75874 whole entry R132H): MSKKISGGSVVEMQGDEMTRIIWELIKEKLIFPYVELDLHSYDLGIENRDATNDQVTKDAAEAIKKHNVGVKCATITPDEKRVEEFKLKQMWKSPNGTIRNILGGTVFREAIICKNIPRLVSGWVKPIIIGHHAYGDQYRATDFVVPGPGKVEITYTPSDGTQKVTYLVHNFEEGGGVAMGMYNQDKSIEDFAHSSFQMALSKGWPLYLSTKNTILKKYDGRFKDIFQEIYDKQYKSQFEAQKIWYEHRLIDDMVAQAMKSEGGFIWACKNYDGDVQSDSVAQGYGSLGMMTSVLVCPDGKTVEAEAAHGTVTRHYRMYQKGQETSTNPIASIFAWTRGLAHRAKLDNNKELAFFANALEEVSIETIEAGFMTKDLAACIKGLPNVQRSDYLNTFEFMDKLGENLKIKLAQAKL
Procedure: as §1

IDH1-R132C recombinant protein, sequence (O75874 whole entry R132C): as the sequence (O75874 whole entry R132H) above, with H132C counted along it

SMILES	IC50 [1] [nM]	IC50 [2] [nM]
COCc1ccccc1-c1ccnc(N[C@@H](C)c2cc3cc(Cl)ccc3[nH]c2=O)n1 [Compound I-100]	1000 to 10000	100 to 1000
COc1nc(N[C@@H](C)c2cc3cc(Cl)c(OC(C)C)cc3[nH]c2=O)ncc1C#N [Compound I-175, (S)-2-((1-(6-chloro-7-isopropoxy-2-oxo-1,2-dihydroquinolin-3-yl)ethyl)amino)-4-methoxypyrimidine-5-carbonitrile]	< 100	< 100
COc1nc(N[C@H](C)c2cc3cc(Cl)c(F)cc3[nH]c2=O)ncc1C#N [Compound I-141, (R)-2-((1-(6-chloro-7-fluoro-2-oxo-1,2-dihydroquinolin-3-yl)ethyl)amino)-4-methoxypyrimidine-5-carbonitrile]	> 10000	> 10000
COc1nc(N[C@@H](C)c2cc3cc(Cl)ccc3n(C)c2=O)ncc1C#N [Compound I-41, (S)-2-((1-(6-chloro-1-methyl-2-oxo-1,2-dihydroquinolin-3-yl)ethyl)amino)-4-methoxypyrimidine-5-carbonitrile]	1000 to 10000	1000 to 10000
CC(C)N(c1ccnc(N[C@@H](C)c2cc3cc(Cl)ccc3[nH]c2=O)n1)S(=O)(=O)c1cccnc1 [Compound I-4, (S)—N-(2-((1-(6-Chloro-2-oxo-1,2-dihydroquinolin-3-yl)ethyl)amino)pyrimidin-4-yl)-N-isopropylpyridine-3-sulfonamide]	< 100	< 100
C[C@H](Nc1nccc(N(CC2CC2)S(C)(=O)=O)n1)c1cc2cc(Cl)ccc2[nH]c1=O [Compound I-2, (S)—N-(2-((1-(6-Chloro-2-oxo-1,2-dihydroquinolin-3-yl)ethyl)amino)pyrimidin-4-yl)-N-(cyclopropylmethyl)methanesulfonamide]	< 100	< 100
C[C@H](Nc1nccc(N(C2CC2)S(C)(=O)=O)n1)c1cc2cc(Cl)ccc2[nH]c1=O [Compound I-14]	1000 to 10000	100 to 1000
CC(C)CS(=O)(=O)N(c1ccnc(N[C@@H](C)c2cc3cc(Cl)ccc3[nH]c2=O)n1)C(C)C [Compound I-5, (S)—N-(2-(1-(6-Chloro-2-oxo-1,2-dihydroquinolin-3-yl)ethylamino)pyrimidin-4-yl)-N-isopropyl-2-methylpropane-1-sulfonamide]	100 to 1000	< 100
CC(Nc1nccc(N2CCOC2=O)n1)c1cc2cc(Cl)ccc2[nH]c1=O (stereo not drawn) [Compound I-48]	100 to 1000	< 100
COc1nc(NC(C)c2cc3cc(Cl)c(OCc4ccccn4)cc3[nH]c2=O)ncc1C#N (stereo not drawn) [Compound I-150]	< 100	< 100
CC(C)N(c1ccnc(N[C@@H](C)c2cc3cc(Cl)ccc3[nH]c2=O)n1)S(C)(=O)=O [Compound I-10, (S)—N-(2-(1-(6-Chloro-2-oxo-1,2-dihydroquinolin-3-yl)ethylamino)pyrimidin-4-yl)-N-isopropylmethanesulfonamide]	100 to 1000	< 100
C[C@H](Nc1nccc(N(C2CCCOC2)S(C)(=O)=O)n1)c1cc2cc(Cl)ccc2[nH]c1=O (stereo partly drawn) [Compound I-3, N-(2-(((S)-1-(6-chloro-2-oxo-1,2-dihydroquinolin-3-yl)ethyl)amino)pyrimidin-4-yl)-N-(tetrahydro-2H-pyran-3-yl)methanesulfonamide]	100 to 1000	100 to 1000
C[C@H](Nc1ncc(C#N)c(=O)[nH]1)c1cc2cc(Cl)ccc2[nH]c1=O [Compound I-178, (S)-2-((1-(6-chloro-2-oxo-1,2-dihydroquinolin-3-yl)ethyl)amino)-6-oxo-1,6-dihydropyrimidine-5-carbonitrile]	1000 to 10000	< 100
CC(C)N(c1ccnc(N[C@@H](C)c2cc3cc(Cl)ccc3[nH]c2=O)n1)S(=O)(=O)CC1CC1 [Compound I-11, (S)—N-(2-((1-(6-Chloro-2-oxo-1,2-dihydroquinolin-3-yl)ethyl)amino)pyrimidin-4-yl)-1-cyclopropyl-N-isopropylmethanesulfonamide]	< 100	< 100
CC(C)[C@H]1COCCN1c1ccnc(N[C@@H](C)c2cc3cc(Cl)ccc3[nH]c2=O)n1 [Compound I-104, 6-chloro-3-((S)-1-(4-((S)-3-isopropylmorpholino)pyrimidin-2-ylamino)ethyl) quinolin-2(1H)-one]	1000 to 10000	100 to 1000
C[C@H](Nc1nccc(N2CCCC2=O)n1)c1cc2cc(Cl)ccc2[nH]c1=O [Compound I-138]	100 to 1000	< 100
COc1nc(NC(C)c2cc3cc(Cl)c(OCC4CC(F)(F)C4)cc3[nH]c2=O)ncc1C#N (stereo not drawn) [Compound I-172, 2-((1-(6-chloro-7-((3,3-difluorocyclobutyl)methoxy)-2-oxo-1,2-dihydroquinolin-3-yl)ethyl)amino)-4-methoxypyrimidine-5-carbonitrile]	100 to 1000	< 100
COc1cc2[nH]c(=O)c([C@@H](C)Nc3ncc(C#N)c(OC)n3)cc2cc1Cl [Compound I-144, (R)-2-((1-(6-Chloro-7-methoxy-2-oxo-1,2-dihydroquinolin-3-yl)ethyl)amino)-4-methoxypyrimidine-5-carbonitrile]	1000 to 10000	100 to 1000
COc1nc(N[C@H](C)c2cc3cc(Cl)ccc3[nH]c2=O)ncc1C#N [Compound I-174]	1000 to 10000	1000 to 10000
CC(C)CS(=O)(=O)N(C)c1ccnc(N[C@@H](C)c2cc3cc(Cl)ccc3[nH]c2=O)n1 [Compound I-15]	100 to 1000	100 to 1000
CC(C)CN(C(=O)C1CC1)c1ccnc(N[C@@H](C)c2cc3cc(Cl)ccc3[nH]c2=O)n1 [Compound I-35]	1000 to 10000	100 to 1000
C[C@H](Nc1nccc(N(CC(C)(C)O)S(C)(=O)=O)n1)c1cc2cc(Cl)ccc2[nH]c1=O [Compound I-19]		1000 to 10000
Cc1ccc2[nH]c(=O)c(CNc3nccc(N(C(C)C)S(C)(=O)=O)n3)cc2c1 [Compound I-166]		1000 to 10000
CC(C)CS(=O)(=O)Nc1ccnc(N[C@@H](C)c2cc3cc(Cl)ccc3[nH]c2=O)n1 [Compound I-18]		1000 to 10000
COCC(=O)Nc1ccnc(N[C@@H](C)c2cc3cc(Cl)ccc3[nH]c2=O)n1 [Compound I-32, (S)—N-(2-((1-(6-Chloro-2-oxo-1,2-dihydroquinolin-3-yl)ethyl)amino)pyrimidin-4-yl)-2-methoxyacetamide]		< 100

Next, values leading:

IC50 [1] [nM]	IC50 [2] [nM]	SMILES
1000 to 10000	1000 to 10000	C[C@H](Nc1nccc(-c2coc3ccccc23)n1)c1cc2cc(Cl)ccc2[nH]c1=O [Compound I-89]
1000 to 10000	100 to 1000	C[C@H](Nc1nccc(-c2cnn(C)c2)n1)c1cc2cc(Cl)ccc2[nH]c1=O [Compound I-91]
100 to 1000	< 100	C[C@H](Nc1nccc([S+](C)[O-])n1)c1cc2cc(Cl)ccc2[nH]c1=O (stereo partly drawn) [Compound I-111]
> 10000	> 10000	C[C@H](Nc1nccc(-c2cccc3c2OCC3)n1)c1cc2cc(Cl)ccc2[nH]c1=O [Compound I-98]
> 10000	1000 to 10000	COc1ncccc1-c1ccnc(N[C@@H](C)c2cc3cc(Cl)ccc3[nH]c2=O)n1 [Compound I-93]
> 10000	1000 to 10000	C[C@H](Nc1nccc(-c2c[nH]nc2C(F)(F)F)n1)c1cc2cc(Cl)ccc2[nH]c1=O [Compound I-86]
100 to 1000	100 to 1000	COc1ccncc1-c1ccnc(N[C@@H](C)c2cc3cc(Cl)ccc3[nH]c2=O)n1 [Compound I-99]
> 10000	1000 to 10000	Cc1nn(C)c(C)c1-c1ccnc(N[C@@H](C)c2cc3cc(Cl)ccc3[nH]c2=O)n1 [Compound I-84]
1000 to 10000	100 to 1000	CC(C)NC(=O)c1ccnc(N[C@@H](C)c2cc3cc(Cl)ccc3[nH]c2=O)n1 [Compound I-117]
1000 to 10000	1000 to 10000	COc1ccccc1-c1ccnc(N[C@@H](C)c2cc3cc(Cl)ccc3[nH]c2=O)n1 [Compound I-102]
1000 to 10000	100 to 1000	C[C@H](Nc1nccc(NC(C)(C)C)n1)c1cc2cc(Cl)ccc2[nH]c1=O [Compound I-7]
	1000 to 10000	C[C@H](Nc1nccc(NC2CC2)n1)c1cc2cc(Cl)ccc2[nH]c1=O [Compound I-9, (S)-6-Chloro-3-(1-((4-(cyclopropylamino)pyrimidin-2-yl)amino)ethyl)quinolin-2(1H)-one]
	1000 to 10000	C[C@H](Nc1nccc(N)n1)c1cc2cc(Cl)ccc2[nH]c1=O [Compound I-139]
	100 to 1000	C[C@H](Nc1nccc(S(C)(=O)=O)n1)c1cc2cc(Cl)ccc2[nH]c1=O [Compound I-105, (S)-6-Chloro-3-(1-((4-(methylsulfonyl)pyrimidin-2-yl)amino)ethyl)quinolin-2(1H)-one]
	1000 to 10000	Cc1noc(C)c1-c1ccnc(N[C@@H](C)c2cc3cc(Cl)ccc3[nH]c2=O)n1 [Compound I-69]
	1000 to 10000	Cc1nccn1-c1ccnc(N[C@@H](C)c2cc3cc(Cl)ccc3[nH]c2=O)n1 [Compound I-56]
	1000 to 10000	Cc1nn(C)cc1-c1ccnc(N[C@@H](C)c2cc3cc(Cl)ccc3[nH]c2=O)n1 [Compound I-77]
	1000 to 10000	Cc1nc(C)c(-c2ccnc(N[C@@H](C)c3cc4cc(Cl)ccc4[nH]c3=O)n2)s1 [Compound I-78]

Reference: US10280150B2 (FORMA TM2, Inc., priority 2014, dated 2019)
